{"source": "patent US10226460B2", "about": "“Pharmaceutically acceptable salts of pirlindole enantiomers for use in medicine” (TECNIMEDE SOCIEDADE TECNICO-MEDICINAL S.A., priority 2014, dated 2019)", "test": "Solubility test, classical saturation shake-flask method in 0.1N HCl", "assay_type": "physicochemical", "experimental": "The Solubility test performed for showing the present invention's advantages is well known in the state of the art and is based on the “Classical saturation shake-flask method”, which comprises: Agitation at 37° C. during 15 h of supersaturated solution of the solid in HCl (aq) 0.1N, followed by filtration, dilution with water and quantification by UV measurement at 267 nm wavelength.", "data": [{"molecule": "Cc1ccc2c(c1)c1c3n2CCNC3CCC1.Cl", "note": "(racemic) [(rac)-pirlindole•HCl, 2,3,3a,4,5,6-hexahydro-1H-8-methyl-pyrazine [3,2,1-j,k]carbazole]", "values": [{"measurement": "Solubility category in 0.1 N HCl", "value": "slightly soluble"}]}]}
